Values joined by “and” are separate entries in the source; they are usually repeats but may differ in a detail not shown here. Equal values may be shown once.
System: Juvenile shrimp
Assay: Carotenoid content of shrimp fed lutein-enriched Designer Diet (HPLC carotenoid analysis)
Format: in vivo
Parameters: AsX (astaxanthin) content of shrimp / Lutein content of shrimp / Other carotenoid content of shrimp / Total carotenoid content of shrimp / AsX (astaxanthin) content of shrimp, Mean / Lutein content of shrimp, Mean / Other carotenoid content of shrimp, Mean / Total carotenoid content of shrimp, Mean: unit not given here
Method: Juvenile shrimp (1-5 g) were cultured in 20 L tanks (5-10 shrimp per tank) at 23 degrees Celsius using standard shrimp diets (e.g., Rangen 35/2.5 shrimp diet). Test diets were prepared containing a 2:1 mixture of Rangen control feed with Lutein (Twin Labs) for a final lutein concentration in the diet of 8g/kg diet. Shrimp were fed at 0.3% body weight 2×/day for the duration of the experiment.
Following 14 days of feeding, the shrimp were collected, frozen to −20° C. and lyophilized prior to chemical analysis.

[1] = Mean of lutein group, lutein 8g/kg diet, 14 days of feeding
[2] = individual sample, lutein 8g/kg diet, 14 days of feeding

## CC1=C[C@H](O)CC(C)(C)[C@H]1/C=C/C(C)=C/C=C/C(C)=C/C=C/C=C(C)/C=C/C=C(C)/C=C/C1=C(C)C[C@@H](O)CC1(C)C [Lutein]
[1]
  A/L (astaxanthin / lutein), Mean: 2.23.
  A/T (astaxanthin / total carotenoids), Mean: 53%
  AsX (astaxanthin) content of shrimp, Mean: 6.24
  L + O/T (lutein + other / total carotenoids), Mean: 47%
  L/T (lutein / total carotenoids), Mean: 33%
  Lutein content of shrimp, Mean: 4.64
  Other carotenoid content of shrimp, Mean: 1.62
  Total carotenoid content of shrimp, Mean: 12.49
Before cooking and after cooking, compared with non-enriched shrimp
  Effect of lutein enrichment on shrimp appearance (FIG. 1): larger, more colorful
[2]
  A/L (astaxanthin / lutein): 3.79 and 1.80 and 0.49 and 1.09 and 3.99
  A/T (astaxanthin / total carotenoids): 68% and 54% and 30% and 45% and 70%
  AsX (astaxanthin) content of shrimp: 6.45 and 4.91 and 4.63 and 8.37 and 6.82
  L + O/T (lutein + other / total carotenoids): 32% and 46% and 70% and 55% and 30%
  L/T (lutein / total carotenoids): 18% (2×) and 30% and 61% and 41%
  Lutein content of shrimp: 1.70 and 2.73 and 9.39 and 7.65 and 1.71
  Other carotenoid content of shrimp: 1.38 and 1.40 and 1.47 and 2.70 and 1.15
  Total carotenoid content of shrimp: 9.53 and 9.04 and 15.49 and 18.72 and 9.68

Source: patent US20060130162A1, “Shrimp and the production thereof” (priority 2002, published 2006)
